Here are results for 5 compounds from paper PMC8749431 (mBio, 2022).

Assay [1] has as its system pseudotyped VSVs harboring SARS-CoV S (SARS-Spp). The assay can be described thus: microbe, parasite or virus in culture. It counts as cell-based. To be noted: for EC50: Severe acute respiratory syndrome coronavirus.
For assay [2], the system named is pseudotyped VSVs harboring MERS-CoV S (MERS-Spp). It counts as cell-based.

Structures are written as SMILES.

The term EC50 denotes the concentration needed to bring the measured effect to its halfway point. Read a high EC50 as weaker potency.

`CN1CCN([C@@H](c2ccccc2)c2ccc(Cl)cc2)CC1` [(S)-CCZ, (S)-chlorcyclizine]: the EC50 in assay [1] worked out at 4.59 µM; in assay [1] (Huh-7) it was 3.21 µM; in assay [1] (MA104) it was 6.91 µM.
Consider `CCN(CC)CCCC(C)Nc1ccnc2cc(Cl)ccc12` (stereo not shown) [Chloroquine, chloroquine], for which, in assay [1], the “inhibition of SARS-Spp entry” value is on record as “inhibited”. Also, in assay [2], the “inhibition of MERS-Spp entry” value is “reduced”.
With `CCN1CCN(C(c2ccc(Cl)cc2)c2ccc(Cl)cc2)CC1` [Dichlorcyclizine, dichlorcyclizine], the EC50 is 5.76 µM in assay [1], 0.87 µM in assay [1] (Huh-7) and 9.92 µM in assay [1] (MA104).
For `CCOC(=O)[C@H]1O[C@@H]1C(=O)N[C@@H](CC(C)C)C(=O)NCCC(C)C` [E-64d], in assay [1], the “inhibition of SARS-Spp entry” value was “inhibited”. Further, the “inhibition of MERS-Spp entry” value in assay [2] is reported as “reduced”.
As for `Cc1cc(-c2nc(CN3CCC(C(=O)NCCCN4C[C@H](C)C[C@H](C)C4)CC3)co2)ccc1F` [Fluoxazolevir, fluoxazolevir], the EC50 in assay [1] was found to be 1.46 µM; in assay [1] (Huh-7), 1.75 µM; in assay [1] (MA104), 6.49 µM.
